Source: US20190309272A1, “Genetically Modified Cell Lines Including a TP53 Modification and Methods of Use” (UNIVERSITY OF SOUTH CAROLINA, priority 2018, published 2019)

Experiments:
Type in all cases: cell-based, Human
MCF7 TP53 KO 5.6 pool = experiment: Drug screening, resazurin, TP53 KO 5.6 pool; conditions: for area under the curve (AUC): KO 56 Pool, ten day drug treatment (Table 3); for TP53 KO 5.6 pool (AUC): ten-day drug treatment, 156.25 nM to 10 μM, resazurin fluorescence
MCF7 TP53 KO 56 E3 = experiment: Drug treatment of single cell clone KO 56 E3; conditions: ten day drug treatment
MCF7 TP53 KO 56 A4 = experiment: Drug treatment of single cell clone KO 56 A4; conditions: ten day drug treatment
MCF7 TP53 KO 56 A7 = experiment: Drug treatment of single cell clone KO 56 A7; conditions: ten day drug treatment; also: unit not given here
MCF7 TP53 KO 34 B5 = experiment: Drug treatment of single cell clone KO 34 B5; conditions: ten day drug treatment; also: unit not given here
MCF7 TP53 KO 56 E1 = experiment: Drug treatment of single cell clone KO 56 E1; conditions: ten day drug treatment; also: unit not given here
MCF7 TP53 KO 56 A8 = experiment: Drug treatment of single cell clone KO 56 A8; conditions: ten day drug treatment
MCF7 TP53 KO 56 C5 = experiment: Drug treatment of single cell clone KO 56 C5; conditions: ten day drug treatment
MCF7 PR WT C7 = experiment: Drug treatment of single cell clone PR WT C7; conditions: ten day drug treatment; also: unit not given here
MCF7 PR WT G2 = experiment: Drug treatment of single cell clone PR WT G2; conditions: ten day drug treatment; also: unit not given here
MCF7 TP53 KO 56 A6 = experiment: Drug treatment of single cell clone KO 56 A6; conditions: ten day drug treatment
MCF7 PR WT A8 = experiment: Drug treatment of single cell clone PR WT A8; conditions: ten day drug treatment; also: unit not given here
MCF7 TP53 KO 34 E1 = experiment: Drug treatment of single cell clone KO 34 E1; conditions: ten day drug treatment
MCF7 WT Parental pool = experiment: Drug screening, resazurin, MCF7 wild type parental pool; conditions: for area under the curve (AUC): PR WT Pool, ten day drug treatment (Table 3); for MCF7 WT Parental pool (AUC): ten-day drug treatment, 156.25 nM to 10 μM, resazurin fluorescence
MCF7 PR WT B8 = experiment: Drug treatment of single cell clone PR WT B8; conditions: ten day drug treatment; also: unit not given here
MCF7 TP53 KO 34 D4 = experiment: Drug treatment of single cell clone KO 34 D4; conditions: ten day drug treatment; also: unit not given here
MCF7 TP53 KO 3.4 pool = experiment: Drug screening, resazurin, TP53 KO 3.4 pool; conditions: for area under the curve (AUC): KO 34 Pool, ten day drug treatment (Table 3); for TP53 KO 3.4 pool (AUC): ten-day drug treatment, 156.25 nM to 10 μM, resazurin fluorescence
MCF7 TP53 KO 56 A5 = experiment: Drug treatment of single cell clone KO 56 A5; conditions: ten day drug treatment

## O=c1[nH]cc(F)c(=O)[nH]1 [Fluorouracil]
MCF7 TP53 KO 5.6 pool
  area under the curve (AUC): 1.745
  TP53 KO 5.6 pool (AUC): 4.286
MCF7 TP53 KO 56 E3
  area under the curve (AUC): 1.645
MCF7 TP53 KO 56 A4
  area under the curve (AUC): 1.716
MCF7 TP53 KO 56 A7
  area under the curve (AUC): 1.81
MCF7 TP53 KO 34 B5
  area under the curve (AUC): 1.618
MCF7 TP53 KO 56 E1
  area under the curve (AUC): 1.697
MCF7 TP53 KO 56 A8
  area under the curve (AUC): 2.02
MCF7 TP53 KO 56 C5
  area under the curve (AUC): 1.826
MCF7 PR WT C7
  area under the curve (AUC): 2.105
MCF7 PR WT G2
  area under the curve (AUC): 2.265
MCF7 TP53 KO 56 A6
  area under the curve (AUC): 1.811
MCF7 PR WT A8
  area under the curve (AUC): 2.126
MCF7 TP53 KO 34 E1
  area under the curve (AUC): 1.945
MCF7 WT Parental pool
  area under the curve (AUC): 2.156
  MCF7 WT Parental pool (AUC): 6.548
MCF7 PR WT B8
  area under the curve (AUC): 1.886
MCF7 TP53 KO 34 D4
  area under the curve (AUC): 1.812
MCF7 TP53 KO 3.4 pool
  area under the curve (AUC): 1.721
  TP53 KO 3.4 pool (AUC): 3.782
MCF7 TP53 KO 56 A5
  area under the curve (AUC): 1.46

## O=C1[O][Pt]2([NH][C@@H]3CCCC[C@H]3[NH]2)[O]C1=O [Oxaliplatin]
MCF7 TP53 KO 5.6 pool
  area under the curve (AUC): 1.164
  TP53 KO 5.6 pool (AUC): 5.118
MCF7 TP53 KO 56 E3
  area under the curve (AUC): 0.9635
MCF7 TP53 KO 56 A4
  area under the curve (AUC): 1.29
MCF7 TP53 KO 56 A7
  area under the curve (AUC): 1.23
MCF7 TP53 KO 34 B5
  area under the curve (AUC): 0.973
MCF7 TP53 KO 56 E1
  area under the curve (AUC): 1.208
MCF7 TP53 KO 56 A8
  area under the curve (AUC): 1.229
MCF7 TP53 KO 56 C5
  area under the curve (AUC): 1.239
MCF7 PR WT C7
  area under the curve (AUC): 0.8311
MCF7 PR WT G2
  area under the curve (AUC): 0.8186
MCF7 TP53 KO 56 A6
  area under the curve (AUC): 1.243
MCF7 PR WT A8
  area under the curve (AUC): 0.7779
MCF7 TP53 KO 34 E1
  area under the curve (AUC): 1.46
MCF7 WT Parental pool
  area under the curve (AUC): 0.9557
  MCF7 WT Parental pool (AUC): 2.372
MCF7 PR WT B8
  area under the curve (AUC): 0.7911
MCF7 TP53 KO 34 D4
  area under the curve (AUC): 1.392
MCF7 TP53 KO 3.4 pool
  area under the curve (AUC): 1.25
  TP53 KO 3.4 pool (AUC): 5.272
MCF7 TP53 KO 56 A5
  area under the curve (AUC): 1.197

## CC(=O)c1c(C)c2cnc(Nc3ccc(N4CCNCC4)cn3)nc2n(C2CCCC2)c1=O [Palbociclib]
MCF7 TP53 KO 5.6 pool
  area under the curve (AUC): 1.457
  TP53 KO 5.6 pool (AUC): 3.234
MCF7 TP53 KO 56 E3
  area under the curve (AUC): 1.469
MCF7 TP53 KO 56 A4
  area under the curve (AUC): 1.846
MCF7 TP53 KO 56 A7
  area under the curve (AUC): 1.753
MCF7 TP53 KO 34 B5
  area under the curve (AUC): 1.522
MCF7 TP53 KO 56 E1
  area under the curve (AUC): 1.497
MCF7 TP53 KO 56 A8
  area under the curve (AUC): 2.031
MCF7 TP53 KO 56 C5
  area under the curve (AUC): 1.632
MCF7 PR WT C7
  area under the curve (AUC): 2.543
MCF7 PR WT G2
  area under the curve (AUC): 2.542
MCF7 TP53 KO 56 A6
  area under the curve (AUC): 1.681
MCF7 PR WT A8
  area under the curve (AUC): 2.127
MCF7 TP53 KO 34 E1
  area under the curve (AUC): 2.274
MCF7 WT Parental pool
  area under the curve (AUC): 2.446
  MCF7 WT Parental pool (AUC): 3.461
MCF7 PR WT B8
  area under the curve (AUC): 1.917
MCF7 TP53 KO 34 D4
  area under the curve (AUC): 1.826
MCF7 TP53 KO 3.4 pool
  area under the curve (AUC): 1.88
  TP53 KO 3.4 pool (AUC): 2.923
MCF7 TP53 KO 56 A5
  area under the curve (AUC): 1.647
